Measured values as given in patent US5356928A, “Cytotoxic agents” (Hauser Chemical Research, Inc., priority 1993, dated 1994).
Values after ≈ are worked out from the molar mass of the structure shown. “Also recorded” adds a separate entry of the source. Like-named read-outs stand apart in the source and are kept apart here.

Columns and labels:
[1] = system: Tubulin free of microtubule-associated proteins; test: Tubulin Assembly (microtubule assembly; protein concentration of the supernatant); assay type: biochemical, bovine; details: for Tubulin Assembly ED50: concentration which reduces the supernatant protein concentration by 50%, tubulin 1 mg/ml, 37° C., 15 minutes, PEM buffer pH 6.9; for Tubulin Assembly ED50 /ED50 Taxol: relative to control sample of taxol, less than 1 = greater activity than taxol
Excerpt: This example illustrates the results of biological tests on the compounds of this invention and certain "controls" with respect to tubulin binding and the effect of these compounds on B16 melanoma. The following procedures were employed:
Tubulin Preparation and Assembly. The tubulin testing was done exactly as described by Himes (Georg, G. I., et al., "Synthesis of Biologically Active Taxol Analogs with Modified Phenylisoserine Side Chains", J. Med. Chem. Vol. 35: 4230, (1992)), incorporated herein by reference. Tubulin free of microtubule-associated proteins was purified from bovine brain as described in Algaier, J.; Himes, R. H., "The Effect of Dimethyl Sulfoxide on the Kinetics of Tubulin Assembly" Biochim. Biophys. Acta, Vol 954, pp 235-243, 1988. The assembly reaction was done at 37° C. in PEM buffer ([…], pH 6.9, 1 mM EGTA, and 1 mM MgSO4) at a protein concentration of 1 mg/ml (10 μM) in the presence of taxol or taxol analogs and 0.5 mM GTP. The reaction was monitored by the increase in the apparent absorbance at 350 nm.
Taxol has been included in Table 1 for reference. […] A number less than 1 in these columns indicates greater activity than taxol. A number greater than 1 in these columns indicates lower activity than taxol. These tests have been used and relied upon by researchers in this field to determine the potential efficacy of taxol and/or a taxol analog for the treatment of cancer.
^b Tubulin at 1 mg/ml was incubated with various concentrations of th
compounds at 37° C. for 15 minutes in 0.5 ml of PEM buffer (0.1M
Pipes, 1 mM EGTA, 1 mM MgSO4, pH 6.9). Samples were centrifuged and
the protein concentration on the supernatant was determined.
^d The concentration in μg/ml which reduces the supernatant protei

B16 melanoma cells = test: B16 Melanoma Cell Proliferation; assay type: cell-based; details: for IC50: Mus musculus, read-out: B16 Proliferation ED50; for B16 Proliferation ED50 /ED50 Taxol: relative to control sample of taxol, less than 1 = greater activity than taxol
Description: The following procedures were employed:
B16 Melanoma Cell Proliferation. Cells were seeded in 24-well plates at 7.5×10^4 cells/well and grown in Delbecco's modified minimal essential medium (MEM) containing 10% bovine calf serum at 37° C. for 24 hours in a 97% humidified atmosphere of 5.5% CO2, the medium was then replaced with fresh medium containing taxol or its derivatives and dissolved in DMSO in concentrations ranging from […] to 1×10^-7 M for taxol and other derivatives. The final concentration of DMSO in the cell medium was 0.5% or less. […] After 40 hours, the cells were released by trypsinization and counted in a Coulter counter.
A number less than 1 in these columns indicates greater activity than taxol. A number greater than 1 in these columns indicates lower activity than taxol.

tubulin = details: Taxotere compared with taxol; taxol per Schiff et al.; Kingston review; cited from earlier work
[2] = system: macrophage-like J774.2 cells; details: mouse macrophage-like J774.2 cells; Taxotere vs taxol; cited from earlier work
[3] = system: P388 murine leukemia cells; details: Taxotere vs taxol; cited from earlier work
[4] = system: taxol-resistant tumor cells; details: Taxotere vs taxol; cited from earlier work
[5] = cited from earlier work
cell = details: literature on taxol and taxol analogs (Kingston); cited from earlier work
[6] = B16, concentration which reduces the number of cells by 50 [%] compared to a control, about 40 h at 37° C., highest concentration used 1000 ng/ml

| SMILES | Tubulin Assembly ED50 [1] | Tubulin Assembly ED50 /ED50 Taxol [1] | IC50 (B16 melanoma cells; B16, 40 h) | B16 Proliferation ED50 /ED50 Taxol (B16 melanoma cells) | further results |
| --- | --- | --- | --- | --- | --- |
| C/C=C(\C)C(=O)N[C@@H](c1ccccc1)[C@@H](O)C(=O)O[C@H]1C[C@@]2(O)[C@@H](OC(=O)c3ccccc3)[C@@H]3[C@]4(OC(C)=O)CO[C@@H]4C[C@H](O[C@@H]4OCC(O)OC4O)[C@@]3(C)C(=O)[C@H](O)C(=C1C)C2(C)C (stereo partly shown) [Compound 10] | 0.82 mg/L | 0.96 | 0.317 mg/L (≈ 0.349 µM) | 14.1 |  |
| CC(=O)O[C@@]12CO[C@@H]1C[C@H](O)[C@@]1(C)C(=O)[C@H](O)C3=C(C)[C@@H](OC(=O)[C@H](O)[C@@H](NC(=O)OC(C)(C)C)c4ccccc4)C[C@@](O)([C@@H](OC(=O)c4ccccc4)[C@H]21)C3(C)C [Compound 2] |  |  |  |  | activity as a promoter of tubulin polymerization / tubulin binding, in words (tubulin): slightly more active as a promoter of tubulin polymerization; also recorded: enhanced in vitro tubulin binding activity; potency as an inhibitor of replication, times more potent than taxol [2]: 1.5 times; potency as an inhibitor of replication, times more potent than taxol [3]: 1.5 times; potency in taxol-resistant tumor cells, vs taxol [4]: at least five-fold more potent; water solubility, in words [5]: improved water solubility |
| CCCCCC(=O)N[C@@H](c1ccccc1)[C@@H](O)C(=O)O[C@H]1C[C@@]2(O)[C@@H](OC(=O)c3ccccc3)[C@@H]3[C@]4(OC(C)=O)CO[C@@H]4C[C@H](O[C@@H]4OC[C@@H](O)[C@H](O)[C@H]4O)[C@@]3(C)C(=O)[C@H](O)C(=C1C)C2(C)C [Compound 13, 10-deacetyl-7-xylosyl taxol C] | 0.58 mg/L | 0.60 | > 1 mg/L | > 44 |  |
| CCCCCC(=O)N[C@@H](c1ccccc1)[C@@H](O)C(=O)O[C@H]1C[C@@]2(O)[C@@H](OC(=O)c3ccccc3)[C@@H]3[C@]4(OC(C)=O)CO[C@@H]4C[C@H](O[C@@H]4OCC(O)OC4O)[C@@]3(C)C(=O)[C@H](O)C(=C1C)C2(C)C (stereo partly shown) [Compound 14] | 1.45 mg/L | 1.70 |  | 8.28 | IC50 (B16 melanoma cells; [6]): 0.186 mg/L (≈ 0.201 µM) |
| CC(=O)O[C@@]12CO[C@@H]1C[C@H](O[C@@H]1OC[C@@H](O)[C@H](O)[C@H]1O)[C@@]1(C)C(=O)[C@H](O)C3=C(C)[C@@H](OC(=O)[C@H](O)[C@@H](NC(=O)c4ccccc4)c4ccccc4)C[C@@](O)([C@@H](OC(=O)c4ccccc4)[C@H]21)C3(C)C [Compound 5, 10-deacetyl-7-xylosyl taxol] | 0.72 mg/L | 0.70 | > 1 mg/L | > 44 |  |
| CC(=O)O[C@H]1C(=O)[C@]2(C)[C@@H](O[C@@H]3OC[C@@H](O)[C@H](O)[C@H]3O)C[C@H]3OC[C@@]3(OC(C)=O)[C@H]2[C@H](OC(=O)c2ccccc2)[C@]2(O)C[C@H](OC(=O)[C@H](O)[C@@H](NC(=O)c3ccccc3)c3ccccc3)C(C)=C1C2(C)C [Compound 3, 7-xylosyl taxol] | 0.82 mg/L | 0.80 | 0.925 mg/L (≈ 0.938 µM) | 40.8 |  |
| CC(=O)O[C@@]12CO[C@@H]1C[C@H](O[C@@H](CO)OCCO)[C@@]1(C)C(=O)[C@H](O)C3=C(C)[C@@H](OC(=O)[C@H](O)[C@@H](NC(=O)c4ccccc4)c4ccccc4)C[C@@](O)([C@@H](OC(=O)c4ccccc4)[C@H]21)C3(C)C [Compound 15] | 1.42 mg/L | 1.66 |  | 14.6 | IC50 (B16 melanoma cells; [6]): 0.328 mg/L (≈ 0.358 µM) |
| CC(=O)O[C@H]1C(=O)[C@@]2(C)[C@H]([C@H](OC(=O)c3ccccc3)[C@]3(O)C[C@H](OC(=O)[C@H](O)[C@@H](NC(=O)c4ccccc4)c4ccccc4)C(C)=C1C3(C)C)[C@]1(OC(C)=O)CO[C@@H]1C[C@@H]2O [Compound 1, taxol] | 1.08 mg/L | 1.26 |  | 0.95 | ED50 for taxol in the assembly assay ([1]; control sample, denominator of ED50/ED50 Taxol, 15 min): 0.854 mg/L; activity as a promoter of tubulin polymerization / tubulin binding, in words (tubulin): significant tubulin binding activity; cytotoxicity / activity, in words (cell): significant cytotoxicity |
| C/C=C(\C)C(=O)N[C@@H](c1ccccc1)[C@@H](O)C(=O)O[C@H]1C[C@@]2(O)[C@@H](OC(=O)c3ccccc3)[C@@H]3[C@]4(OC(C)=O)CO[C@@H]4C[C@H](O[C@@H]4OC[C@@H](O)[C@H](O)[C@H]4O)[C@@]3(C)C(=O)[C@H](O)C(=C1C)C2(C)C [Compound 9, 10-deacetyl-7-xylosyl cephalomannine] | 1.10 mg/L | 1.10 | 0.755 mg/L (≈ 0.819 µM) | 33.3 |  |
| CC(=O)O[C@@]12CO[C@@H]1C[C@H](O[C@@H]1OCC(O)OC1O)[C@@]1(C)C(=O)[C@H](O)C3=C(C)[C@@H](OC(=O)[C@H](O)[C@@H](NC(=O)c4ccccc4)c4ccccc4)C[C@@](O)([C@@H](OC(=O)c4ccccc4)[C@H]21)C3(C)C (stereo partly shown) [Compound 6] | 0.68 mg/L | 0.80 | 0.432 mg/L (≈ 0.465 µM) | 15.1 |  |
| CC(=O)O[C@H]1C(=O)[C@]2(C)[C@@H](O[C@@H]3OCC(O)OC3O)C[C@H]3OC[C@@]3(OC(C)=O)[C@H]2[C@H](OC(=O)c2ccccc2)[C@]2(O)C[C@H](OC(=O)[C@H](O)[C@@H](NC(=O)c3ccccc3)c3ccccc3)C(C)=C1C2(C)C (stereo partly shown) [Compound 4] | 0.48 mg/L | 0.57 |  | 2.2 | tubulin binding / in vitro tubulin assembly, in words ([1]; compared to taxol or to precursors): comparable to results for taxol; cytotoxicity, in words (B16 melanoma cells; B16 melanoma, compared to taxol or to precursors): comparable to results for taxol; IC50 (B16 melanoma cells; [6]): 0.05 mg/L (≈ 0.0514 µM) |
